Results as given in paper PMC9786284, “Synthesis and Antiproliferative Effect of Halogenated Coumarin Derivatives” (Molecules, 2022).
Like-named read-outs stand apart in the source and are kept apart here.

Columns and labels:
Format in all cases: cell-based
[1] = system: B-CPAP thyroid cancer cell line; experiment: MTT cell viability assay
Procedure: (§1) The cytotoxic effect of coumarins 2a–k was tested on several cancer and normal cell lines: lung cancer cell line (SK-MES-1), thyroid cancer cell lines (K-1; B-CPAP ant TPC-1), lung fibroblast (MRC-5) and thyroid normal cell line (Nthy-ori-3-1) by MTT (3-[4,5-dimethylthiazol-2-yl]-2,5 diphenyltetrazolium bromide) assay.
(§2) The papillary thyroid carcinoma (PTC)-derived cell lines (TPC-1 and B-CPAP) were kindly provided by Dr. Fusco (Medical School, University Federico II of Naples, Naples, Italy). K-1 PTC-derived cell line and non-tumorigenic thyroid Nthy-ori-3-1 cell line were purchased from Health Protection Agency Culture Collections. The PTC-derived cell lines were maintained in DMEM/F12 (Gibco-BRL. Life Technologies, Milan, Italy)] supplemented with 10% fetal bovine serum (Gibco-BRL) at 37 °C in humidified 5% CO2. SK-MES-1 and MRC-5 were purchased from American Type Culture Collection (ATCC) and were maintained in Mem-E medium, supplemented with 10% fetal bovine serum, 100 units/mL penicillin G, and 100 μg/mL streptomycin (Gibco-BRL) at 37 °C in humidified 5% CO2.
(§3) The effect of test compounds on the viability of cells was detected by MTT assay. The thyroid cells (7.5 × 10^3 cells/mL), SK-MES-1, and MRC-5 (8 × 10^4 cells/mL) were seeded into a 96-well plate and allowed to adhere for 16 h to culture plates before the addition of the compounds.
(§4) Then, compounds were added at different concentrations (0.8–100 μM), and cells were further incubated for 24 h. Cells with no treatment were used as a negative control. After incubation, cells were treated with MTT solution for 3 h at 37 °C. Then, the MTT solution was removed, and 150 µL of DMSO was added to the wells. The absorbances were measured at 570 nm using a TECAN microplate reader (Infinite 200, Tecan, Salzburg, Austria). Viability data were reported as % of control (untreated cells) for each cell line.

[2] = system: SK-MES-1 lung cancer cell line; experiment: MTT cell viability assay
Procedure: as §1, §2, §3, §4

[3] = system: K-1 thyroid cancer cell line; experiment: MTT cell viability assay
Procedure: as §1, §2, §3, §4

MTT cell viability assay = settings: human, MTT, 24 h, concentration required to inhibit cell proliferation by 50%, mean ± SD
Procedure: as §1, §2, §3, §4

[4] = system: TPC-1 thyroid cancer cell line; experiment: MTT cell viability assay
Procedure: as §1, §2, §3, §4

MRC-5 lung fibroblast = experiment: MTT cell viability assay
Procedure: as §1, §2, §3, §4

[5] = system: Nthy-ori-3-1 thyroid normal cell line; experiment: MTT cell viability assay
Procedure: as §1, §2, §3, §4

[6] = Homo sapiens, BCPAP, B-CPAP, MTT, 24 h, concentration required to inhibit cell proliferation by 50%, mean ± SD, read-out: CC50
[7] = Homo sapiens, SK-MES-1, MTT, 24 h, concentration required to inhibit cell proliferation by 50%, mean ± SD, read-out: CC50
[8] = K-1, MTT, 24 h, concentration required to inhibit cell proliferation by 50%, mean ± SD, read-out: CC50
[9] = Nthy-ori-3-1 normal thyroid cells, Nthy-ori-3-1
[10] = Homo sapiens, TPC1, TPC-1, MTT, 24 h, concentration required to inhibit cell proliferation by 50%, mean ± SD, read-out: CC50

Row | Compound | CC50 [1, 6] [µM] | CC50 [2, 7] [µM] | CC50 [3, 8] [µM] | CC50 at 24 h (MTT cell viability assay; MRC-5 lung fibroblasts, MRC-5) [µM] | CC50 at 24 h (MTT cell viability assay; [9]) [µM] | CC50 [4, 10] [µM] | CC50 (MRC-5 lung fibroblast) [µM] | CC50 [5] [µM] | CC50 [1] [µM] | CC50 [2] [µM] | CC50 [3] [µM] | CC50 [4] [µM]
1 | N#Cc1cc2cc(Br)ccc2oc1=O [2e, 6-Bromo-2-oxo-2H-chromene-3-carbonitrile] | > 100 | > 100 | > 100 | > 100 | > 100 | > 100 |  |  |  |  |  | 
2 | CS(=O)(=O)c1cc2cc(Br)ccc2oc1=O [2f, 6-Bromo-3-(methylsulfonyl)-2H-chromen-2-one] | > 100 | > 100 | > 100 | > 100 | > 100 | > 100 |  |  |  |  |  | 
3 | CCOC(=O)c1cc2cc(Br)ccc2oc1=O [2d, Ethyl 6-bromo-2-oxo-2H-chromene-3-carboxylate] | > 100 | > 100 | > 100 | > 100 | > 100 | > 100 |  |  |  |  |  | 
4 | Ethyl 6-fluoro-2-oxo-2H-chromene-3-carboxylate [2b] |  |  |  |  |  |  | > 100 | > 100 | > 100 | > 100 | > 100 | > 100
5 | O=C(O)c1cc2cc(I)cc(I)c2oc1=O [2j, 6,8-diiodo-2-oxo-2H-chromene-3-carboxylic Acid] | > 100 | > 100 | > 100 | > 100 | > 100 | > 100 |  |  |  |  |  | 
6 | CCOC(=O)c1cc2cc(Br)cc(Br)c2oc1=O [2g, Ethyl 6,8-dibromo-2-oxo-2H-chromene-3-carboxylate] | > 100 | > 100 | > 100 | > 100 | > 100 | > 100 |  |  |  |  |  | 
7 | N#Cc1cc2cc(Cl)ccc2oc1=O [2c, 6-Chloro-2-oxo-2H-chromene-3-carbonitrile] | > 100 | > 100 | > 100 | > 100 | > 100 | > 100 |  |  |  |  |  | 
8 | CC[C@@]1(O)C(=O)OCc2c1cc1n(c2=O)Cc2cc3ccccc3nc2-1 [Camptothecin, reference compound] | 0.03 | 0.017 ± 0.003 |  | 0.1 ± 0.03 | 0.01 ± 0.02 | 0.01 ± 0.02 |  |  |  |  |  | 
9 | N#Cc1cc2cc(F)ccc2oc1=O [2a, 6-Fluoro-2-oxo-2H-chromene-3-carbonitrile] | > 100 | > 100 | > 100 | > 100 | > 100 | > 100 |  |  |  |  |  | 
10 | CCOC(=O)c1cc2cc(I)cc(I)c2oc1=O [2i, Ethyl 6,8-diiodo-2-oxo-2H-chromene-3-carboxylate] | > 100 | > 100 | > 100 | > 100 | > 100 | > 100 |  |  |  |  |  | 
